Reference: ChEMBL document CHEMBL4371019, “Sanguiin H-11 from Sanguisorbae radix protects HT22 murine hippocampal cells against glutamate-induced death” (2019)
Active and inactive are the calls of the source. No cut-off for these calls is given here.

Legend:
HT-22 [1] = assay: Neuroprotective activity against glutamate-induced neuronal cell death in mouse HT22 cells at 10 to 20 uM by microscopic analysis; format: functional, cell-based
HT-22 [2] = assay: Neuroprotective activity against glutamate-induced neuronal cell death in mouse HT22 cells assessed as increase in cell viability at 20 to 50 uM after 24 hrs by MTT assay; format: functional, cell-based
[3] = Antioxidant activity assessed as DPPH free radical scavenging activity up to 15 uM incubated for 30 mins; format: functional
HT-22 [4] = assay: Antioxidant activity in mouse HT22 cells assessed as reduction in glutamate-induced increase in intracellular reactive oxygen species level at 10 to 20 uM after 8 hrs by H2DCFDA staining based fluorescence microscopic analysis; format: functional, cell-based
HT-22 [5] = assay: Neuroprotective activity against glutamate-induced neuronal cell death in mouse HT22 cells assessed as reduction in intracellular calcium level at 10 to 20 uM after 8 hrs by fluorescence microscopic analysis; format: functional, cell-based
[6] = target: Mitogen-activated protein kinase 1 and 3 (ERK2 and ERK1) (Mus musculus) (UniProt P63085+Q63844); assay: Inhibition of glutamate-induced ERK1/2 phosphorylation in mouse HT22 cells at 10 to 20 after 8 hrs by Western blot analysis; format: cell-based
Mus musculus = species on record: Mus musculus; assay: Inhibition of glutamate-induced JNK phosphorylation in mouse HT22 cells at 10 to 20 after 8 hrs by Western blot analysis; format: cell-based
[7] = target: MAP kinase p38 (Mus musculus) (UniProt P47811+O08911+Q9WUI1+Q9Z1B7); assay: Inhibition of glutamate-induced p38 MAPK phosphorylation in mouse HT22 cells at 10 to 20 after 8 hrs by Western blot analysis; format: cell-based
HT-22 [8] = assay: Inhibition of glutamate-induced apoptosis in mouse HT22 cells assessed as apoptotic cells at 10 uM after 12 hrs by AlexaFluor 488-Annexin V/propidium iodide staining-based assay (reference value: 54%); format: functional; settings: HT-22, 12 h
HT-22 [9] = assay: Inhibition of glutamate-induced apoptosis in mouse HT22 cells assessed as apoptotic cells at 20 uM after 12 hrs by AlexaFluor 488-Annexin V/propidium iodide staining-based assay (reference value: 54%); format: functional; settings: HT-22, 12 h
HT-22 [10] = assay: Neuroprotective activity against glutamate-induced neuronal cell death in mouse HT22 cells assessed as increase in cell viability at 0.5 to 5 uM after 24 hrs by MTT assay; format: functional, cell-based

Chain of Mitogen-activated protein kinase 1 and 3 (ERK2 and ERK1) (Mus musculus) (P63085 whole entry, looked up): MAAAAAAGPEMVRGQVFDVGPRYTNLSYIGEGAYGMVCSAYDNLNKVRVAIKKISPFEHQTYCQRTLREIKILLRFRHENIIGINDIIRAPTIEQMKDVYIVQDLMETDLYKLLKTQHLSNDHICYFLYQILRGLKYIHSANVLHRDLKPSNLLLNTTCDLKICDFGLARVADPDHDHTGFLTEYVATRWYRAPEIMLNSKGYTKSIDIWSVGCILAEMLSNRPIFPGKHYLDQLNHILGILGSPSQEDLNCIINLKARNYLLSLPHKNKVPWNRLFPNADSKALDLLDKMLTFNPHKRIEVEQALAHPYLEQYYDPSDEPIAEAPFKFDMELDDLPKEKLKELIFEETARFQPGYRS
Chain of Mitogen-activated protein kinase 1 and 3 (ERK2 and ERK1) (Mus musculus) (Q63844 whole entry, looked up): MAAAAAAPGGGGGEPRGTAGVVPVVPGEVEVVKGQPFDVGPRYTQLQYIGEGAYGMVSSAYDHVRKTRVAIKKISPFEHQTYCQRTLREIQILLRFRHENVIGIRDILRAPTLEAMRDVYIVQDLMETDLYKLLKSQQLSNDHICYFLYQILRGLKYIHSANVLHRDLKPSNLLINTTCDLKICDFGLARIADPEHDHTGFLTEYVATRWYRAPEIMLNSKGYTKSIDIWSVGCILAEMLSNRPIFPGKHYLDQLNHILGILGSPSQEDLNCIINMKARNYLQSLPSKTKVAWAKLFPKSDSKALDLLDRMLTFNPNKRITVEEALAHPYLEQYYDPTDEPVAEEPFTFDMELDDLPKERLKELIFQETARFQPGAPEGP

| SMILES | Activity (HT-22 [1]) | Activity (HT-22 [2]) | Activity [3] | Activity (HT-22 [4]) | Activity (HT-22 [5]) | inhibition [6] | inhibition (Mus musculus) | inhibition [7] | inhibition at 10 µM (HT-22 [8]) [%] | inhibition at 20 µM (HT-22 [9]) [%] | Activity (HT-22 [10]) |
| --- | --- | --- | --- | --- | --- | --- | --- | --- | --- | --- | --- |
| O=C(O[C@@H]1O[C@@H]2COC(=O)c3cc(O)c(O)c(O)c3-c3c(cc(O)c(O)c3O)C(=O)O[C@H]2[C@@H]2OC(=O)c3cc(O)c(O)c(O)c3-c3c(cc(O)c(O)c3O)C(=O)O[C@@H]12)c1cc(O)c(O)c(O)c1 | Active | Active | Active | Active | Active | Active | Active | Active | 12.7 | 8.5 |  |
| CC(=O)N[C@@H](CS)C(=O)O |  |  |  |  |  |  |  |  |  |  | Active |
